Results: patent publication US4565811A, “Sodium salt of ursodeoxycholic sulphate” (Istituto Biologico Chemioterapico "ABC" S.p.A., priority 1983, dated 1986)
Structures can show the parent of a compound that is named as a salt.

How the values were obtained:
rat [1] = test: Acute toxicity of US in the rat by intraperitoneal administration; format: in vivo; design: key to Symptomatology: N: none; D: depression; settings: for Symptomatology: 8 days; for Died animals: groups of 10, 8 days
Protocol: (§1) Acute toxicity of sodium ursosulphate was tested in rats by administering the different doses of the compound directly in a physiologic solution at 0.9% in a volume either of 10 ml/kg by oral route through a probe directly to the stomach or of 5 ml/kg intraperitoneously or intravenously.
(§2) The dosages administered to groups of 10 animals each are reported in the following Tables 3 to 5 together with the symptomatology observed for a period of 8 days.

[2] = as above; format: in vivo; design: key to Symptomatology: N: none; D: depression; settings: rat, in vivo, ip
Protocol: as §1, §2

[3] = Solubility in water / acidity; format: physicochemical; settings: water
rat [4] = test: Acute toxicity of US in the rat by intravenous route; format: in vivo; design: key to Symptomatology: N: none; D: depression; settings: for Symptomatology: 8 days; for Died animals: groups of 10, 8 days
Protocol: as §1, §2

[5] = as above; format: in vivo; design: key to Symptomatology: N: none; D: depression; settings: rat, in vivo
Protocol: as §1, §2

[6] = tested on: hyperdislipidemia caused by Triton WR-1339 in the rat; test: Action on the hyperdislipidemia caused by Triton WR-1339 in the rat; format: in vivo, Albinus rats (Witar); settings: for Alfa-Lipoproteins: Increase towards Group 2 / Beta-Lipoproteins: Inhibition towards Group 2 / Beta/alfa ratio: Inhibition towards Group 2 / Total cholesterol: Inhibition in comparison with Group 2 / Total lipids: Inhibition in comparison with Group 2 / Triglycerids: Inhibition in comparison with Group 2: vs Group 2 (Triton control); for Activity compared with UA: oral
Protocol: Action on the hyperdislipidemia caused by Triton WR-1339 in the rat
Albinus rats (Witar) of 300-320 g each, having been fed only with water "ad libitum" for 12 hours, were treated with US and UA, by oral route, 4 hours before and 15 hours after the administration intraperitenously of Triton WR-1339 at the dosage of 300 mg/kg in 10 ml/kg of physiologic solution at 0.9%.
US and UA dosages were 25, 50 and 100 mg/kg respectively and the rats were divided in the following groups of 10 animals each.
Group 1: Controls treated with 10 ml/kg of physiological solution at 0.9% orally.
Group 2: Controls treated with 300 mg/kg of Triton WR-1339 i.p. and 10 ml/kg of carboxy methyl cellulose (CMC) at 0.5%.
Group 3, 4 and 5: UA at 25, 50 and 100 mg/kg respectively suspended in 10 ml/kg of CMC at 0.5%.
Groups 6, 7 and 8: US at 25, 50 and 100 mg/kg respectively dissolved in 10 ml/kg of physiologic solution.
The following Tables 1 and 2 list the results of blood-tests from addominal aorta of rats sacrificed 5 hours after the last treatment: […]

[7] = Toxicity of sodium ursosulphate compared with ursodeoxycholic acid; settings: in vivo
rat [8] = test: Acute toxicity of US in the rat by oral administration; format: in vivo; design: key to Symptomatology: N: none; D: depression; settings: for Symptomatology: 8 days; for Died animals: groups of 10, 8 days
Protocol: as §1, §2

[9] = as above; format: in vivo; design: key to Symptomatology: N: none; D: depression; settings: rat, in vivo
Protocol: as §1, §2

[10] = rat, up to the administered doses
[11] = 25 mg/kg os, Triton WR-1339 rat
[12] = 50 mg/kg os, Triton WR-1339 rat
[13] = 100 mg/kg os, Triton WR-1339 rat

In the case of `CC(CCC(=O)O)C1CCC2C3C(OS(=O)(=O)O)CC4CC(OS(=O)(=O)O)CCC4(C)C3CCC12C` (stereo not drawn) [US, sodium salt of ursodeoxycholic O-sulphate], the Symptomatology (rat [1]; 500 mg/kg) is reported as “N”, the Died animals (rat [1]; 500 mg/kg) is reported as 0 animals and the Symptomatology (rat [1]; 600 mg/kg) is reported as “N”. For the same compound, the Died animals (rat [1]; 600 mg/kg) was 0 animals, the Symptomatology (rat [1]; 700 mg/kg) was “D” and the Died animals (rat [1]; 700 mg/kg) was 0 animals. The Symptomatology (rat [1]; 800 mg/kg) was “D”, the Died animals (rat [1]; 800 mg/kg) was 0 animals and the Symptomatology (rat [1]; 900 mg/kg) was “D”. The Died animals (rat [1]; 900 mg/kg) was 2 animals, the LD50 (rat [1]; [10]) was “the LD50 was not reached up to the administered doses” and the mortality at 192 h ([2]; 500 mg/kg) was 0%. The mortality at 192 h ([2]; 600 mg/kg) was 0%, the mortality at 192 h ([2]; 700 mg/kg) was 0% and the mortality at 192 h ([2]; 800 mg/kg) was 0%. The mortality at 192 h ([2]; 900 mg/kg) was 10%, the Solubility in water ([3]; listed as Sodium ursosulphate) was “very soluble in water” and the Solubility in water ([3]; listed as sodium ursosulphate) was “very soluble in water”. For the same compound, the Symptomatology (rat [4]; 400 mg/kg) was “N”, the Died animals (rat [4]; 400 mg/kg) was 0 animals and the Symptomatology (rat [4]; 500 mg/kg) was “N”. For the same compound, the Died animals (rat [4]; 500 mg/kg) was 0 animals, the Symptomatology (rat [4]; 600 mg/kg) was “D” and the Died animals (rat [4]; 600 mg/kg) was 0 animals. For the same compound, the Symptomatology (rat [4]; 650 mg/kg) was “D + C”, the Died animals (rat [4]; 650 mg/kg) was 1 animals and the Symptomatology (rat [4]; 700 mg/kg) was “D + C”. For the same compound, the Died animals (rat [4]; 700 mg/kg) was 1 animals, the Symptomatology (rat [4]; 750 mg/kg) was “D + C” and the Died animals (rat [4]; 750 mg/kg) was 2 animals. The LD50 (rat [4]; [10]) was “the LD50 was not reached up to the administered doses”, the mortality at 192 h ([5]; 400 mg/kg) was 0% and the mortality at 192 h ([5]; 500 mg/kg) was 0%. It also gave a mortality at 192 h ([5]; 600 mg/kg) of 0%, a mortality at 192 h ([5]; 650 mg/kg) of 10% and a mortality at 192 h ([5]; 700 mg/kg) of 10%. For the same compound, the mortality at 192 h ([5]; 750 mg/kg) was 20%, the “Alfa-Lipoproteins Average ± SD” value [6, 11] was 29,2 ± 6,7 mg/100 ml serum and the “Beta-Lipoproteins Average ± SD” value [6, 11] was 191,5 ± 42,1 mg/100 ml serum. The “Beta/alfa ratio Average ± SD” value [6, 11] was 7,23 ± 3,6 mg/100 ml serum, the “Total cholesterol Average ± SD” value [6, 11] was 220,8 ± 36,4 mg/100 ml serum and the “Total lipids Average ± SD” value [6, 11] was 2697,1 ± 706,8 mg/100 ml serum. For the same compound, the “Triglycerids Average ± SD” value [6, 11] was 1040,6 ± 91,08 mg/100 ml serum, the “Alfa-Lipoproteins: Increase towards Group 2” value ([6]; 25 mg/kg os) was “+30,4%” and the “Beta-Lipoproteins: Inhibition towards Group 2” value ([6]; 25 mg/kg os) was -29,9%. The “Beta/alfa ratio: Inhibition towards Group 2” value ([6]; 25 mg/kg os) was -42,0%, the “Total cholesterol: Inhibition in comparison with Group 2” value (shortened to “Total cholesterol: Inhibition”) ([6]; 25 mg/kg os) was -25,4% and the “Total lipids: Inhibition in comparison with Group 2” value (“Total lipids: Inhibition” for short) ([6]; 25 mg/kg os) was -29,4%. The “Triglycerids: Inhibition in comparison with Group 2” value (shortened to “Triglycerids: Inhibition”) ([6]; 25 mg/kg os) was -20,7%, the “Alfa-Lipoproteins Average ± SD” value [6, 12] was 39,32 ± 5,5 mg/100 ml serum and the “Beta-Lipoproteins Average ± SD” value [6, 12] was 123,8 ± 27,7 mg/100 ml serum. The “Beta/alfa ratio Average ± SD” value [6, 12] was 3,15 ± 1,1 mg/100 ml serum, the “Total cholesterol Average ± SD” value [6, 12] was 163,2 ± 25,7 mg/100 ml serum and the “Total lipids Average ± SD” value [6, 12] was 1972,6 ± 550,0 mg/100 ml serum. The “Triglycerids Average ± SD” value [6, 12] was 654,3 ± 206,5 mg/100 ml serum, the “Alfa-Lipoproteins: Increase towards Group 2” value ([6]; 50 mg/kg os) was “+75,4%” and the “Beta-Lipoproteins: Inhibition towards Group 2” value ([6]; 50 mg/kg os) was -54,7%. The “Beta/alfa ratio: Inhibition towards Group 2” value ([6]; 50 mg/kg os) was -74,7%, the “Total cholesterol: Inhibition” value ([6]; 50 mg/kg os) was -44,3% and the “Total lipids: Inhibition” value ([6]; 50 mg/kg os) was -48,4%. For the same compound, the “Triglycerids: Inhibition” value ([6]; 50 mg/kg os) was -50,1%, the “Alfa-Lipoproteins Average ± SD” value [6, 13] was 44,8 ± 8,5 mg/100 ml serum and the “Beta-Lipoproteins Average ± SD” value [6, 13] was 102,3 ± 36,9 mg/100 ml serum. For the same compound, the “Beta/alfa ratio Average ± SD” value [6, 13] was 2,46 ± 1,2 mg/100 ml serum, the “Total cholesterol Average ± SD” value [6, 13] was 147,2 ± 31,3 mg/100 ml serum and the “Total lipids Average ± SD” value [6, 13] was 1949,7 ± 273,9 mg/100 ml serum. The “Triglycerids Average ± SD” value [6, 13] was 583,4 ± 121,1 mg/100 ml serum, the “Alfa-Lipoproteins: Increase towards Group 2” value ([6]; 100 mg/kg os) was “+100%” and the “Beta-Lipoproteins: Inhibition towards Group 2” value ([6]; 100 mg/kg os) was -72,6%. For the same compound, the “Beta/alfa ratio: Inhibition towards Group 2” value ([6]; 100 mg/kg os) was -80,3%, the “Total cholesterol: Inhibition” value ([6]; 100 mg/kg os) was -50,3% and the “Total lipids: Inhibition” value ([6]; 100 mg/kg os) was -48,9%. The “Triglycerids: Inhibition” value ([6]; 100 mg/kg os) was -55,5%, the “Dose dependence of activity inhibiting the hyperdislipidemia” value ([6]; 25, 50 and 100 mg/kg oral, Triton WR-1339 rat) was “depends on the dosage” and the “Activity compared with UA” value ([6]; Triton WR-1339 rat) was “more active than UA in all the considered tests”. The “Activity compared with UA” value ([6]; Triton WR-1339 rat, listed as sodium ursosulphate (US)) was “an activity in some cases higher than that of ursodeoxycholic acid”, the “Toxicity compared with ursodeoxycholic acid” value [7] was “does not show any significative differences and maintains the values already known for ursodeoxycholic acid” and the Symptomatology (rat [8]; 1000 mg/kg) was “N”. The Died animals (rat [8]; 1000 mg/kg) was 0 animals, the Symptomatology (rat [8]; 2000 mg/kg) was “N” and the Died animals (rat [8]; 2000 mg/kg) was 0 animals. The Symptomatology (rat [8]; 3000 mg/kg) was “D”, the Died animals (rat [8]; 3000 mg/kg) was 0 animals and the Symptomatology (rat [8]; 4000 mg/kg) was “D”. The Died animals (rat [8]; 4000 mg/kg) was 0 animals, the Symptomatology (rat [8]; 5000 mg/kg) was “D” and the Died animals (rat [8]; 5000 mg/kg) was 2 animals. For the same compound, the Symptomatology (rat [8]; 6000 mg/kg) was “D”, the Died animals (rat [8]; 6000 mg/kg) was 4 animals and the LD50 (rat [8]; [10]) was “the LD50 was not reached up to the administered doses”. The mortality at 192 h ([9]; 1000 mg/kg) was 0%, the mortality at 192 h ([9]; 2000 mg/kg) was 0% and the mortality at 192 h ([9]; 3000 mg/kg) was 0%. For the same compound, the mortality at 192 h ([9]; 4000 mg/kg) was 0%, the mortality at 192 h ([9]; 5000 mg/kg) was 20% and the mortality at 192 h ([9]; 6000 mg/kg) was 40%.
